In patent publication US20230011869A1 (Hoffmann-La Roche Inc., priority 2018, published 2023):
Counter-ions that a name gives are not always drawn. Like-named read-outs stand apart in the source and are kept apart here.

Test system: Acinetobacter baumannii ATCC17978
Assay: Antimicrobial susceptibility testing: 90% growth inhibitory concentration (IC90) determination, Iso-Sensitest broth
Format: cell-based
Description: Antimicrobial Susceptibility Testing:
90% Growth Inhibitory Concentration (IC90) Determination
The in vitro antimicrobial activity of the compounds was determined according to the following procedure:
The assay used a 10-points Iso-Sensitest broth medium to measure quantitatively the in vitro activity of the compounds against Acinetobacter baumannii ATCC17978 and Acinetobacter baumannii ATCC17961.
Microtiter plates were incubated at 35±2° C.
Bacterial cell growth was determined with the measurement of optical density at λ=600 nm each 20 minutes over a time course of 16 h. Growth inhibition was calculated during the logarithmic growth of the bacterial cells with determination of the concentration inhibiting 50% (IC50) and 90% (IC90) of the growth.

[1] = 90% growth inhibitory concentration, Acinetobacter baumannii ATCC17978, Iso-Sensitest broth, OD 600 nm over 16 h, read-out: ATCC17978 IC90

Structure (SMILES) | IC90 [1] [nM] | IC90 (Acinetobacter baumannii, ATCC17978, 16 h, read-out: ATCC17978 IC90, 90% growth inhibitory concentration, Acinetobacter baumannii ATCC17978, Iso-Sensitest broth, OD 600 nm over 16 h) [nM]
COc1ccc(-c2cnc3c(Nc4ccc(C(=O)N5CCN(C)CC5)c(C)c4)nccn23)cc1 [Example 5, (4-((3-(4-methoxyphenyl)imidazo[1,2-a]pyrazin-8-yl)amino)-2-methylphenyl)(4-methylpiperazin-1-yl)methanone] | 1200 | 
COc1ccc(-c2cnc3c(Nc4ccc(C(=O)N5CCOCC5)c(C)c4)nccn23)cc1 [Example 6, (4-((3-(4-methoxyphenyl)imidazo[1,2-a]pyrazin-8-yl)amino)-2-methylphenyl)(morpholine)methanone] | 350 | 
COc1ccc(-c2cnc3c(Nc4ccc(C(=O)N5CCC(O)CC5)c(C)c4)nccn23)cc1 [Example 7, (4-hydroxypiperidin-1-yl)(4-((3-(4-methoxyphenyl)imidazo[1,2-a]pyrazin-8-yl)amino)-2-methylphenyl)methanone] | 660 | 
COc1ccc(-c2cnc3c(Nc4ccc(C(=O)N5CCC(C(=O)N6CCNCC6)CC5)c(C)c4)nccn23)cc1F [Example 14, (1-(4-((3-(3-fluoro-4-methoxyphenyl)imidazo[1,2-a]pyrazin-8-yl)amino)-2-methylbenzoyl)piperidin-4-yl)(piperazin-1-yl)methanone hydrochloride] | 140 | 
Cc1cc(Nc2nccn3c(-c4ccc(OC(F)F)cc4)cnc23)ccc1C(=O)N1CCC2(CC1)CNCCO2 [Example 17, (4-((3-(4-(difluoromethoxy)phenyl)imidazo[1,2-a]pyrazin-8-yl)amino)-2-methylphenyl)(1-oxa-4,9-diazaspiro[5.5]undecan-9-yl)methanone] | 1300 | 
COc1ccc(-c2cnc3c(Nc4ccc(C(=O)N5CCOCC5)c(C)c4)nccn23)cc1Cl [Example 21, (4-((3-(3-chloro-4-methoxyphenyl)imidazo[1,2-a]pyrazin-8-yl)amino)-2-methylphenyl)(morpholino)methanone] | 240 | 
COc1ccc(-c2cnc3c(Nc4ccc(C(=O)N5CCN(C)CC5)c(C)c4)nccn23)cc1Cl [Example 22, (4-((3-(3-chloro-4-methoxyphenyl)imidazo[1,2-a]pyrazin-8-yl)amino)-2-methylphenyl)(4-methylpiperazin-1-yl)methanone] | 1300 | 
COc1ccc(-c2cnc3c(Nc4ccc(C(=O)N5CCOC(CN(C)C)C5)c(C)c4)nccn23)cc1F (centres unmarked) [Example 23, [2-[(dimethylamino)methyl]morpholin-4-yl]-[4-[[3-(3-fluoro-4-methoxy-phenyl)imidazo[1,2-a]pyrazin-8-yl]amino]-2-methyl-phenyl]methanone;2,2,2-trifluoroacetic acid] | 1100 | 
CN(C)CCN1CCN(C(=O)c2ccc(Nc3nccn4c(-c5ccc(OCC#N)c(F)c5Cl)cnc34)cc2Cl)CC1 [Example 25, 2-[3-chloro-4-[8-[3-chloro-4-[4-[2-(dimethylamino)ethyl]piperazine-1-carbonyl]anilino]imidazo[1,2-a]pyrazin-3-yl]-2-fluoro-phenoxy]acetontrile] | 140 | 
COc1cc(Cl)c(-c2cnc3c(Nc4ccc(C(=O)N5CCC(CN)CC5)c(C)c4)nccn23)cc1F [Example 26, [4-(aminomethyl)-1-piperidyl]-[4-[[3-(2-chloro-5-fluoro-4-methoxy-phenyl)imidazo[1,2-a]pyrazin-8-yl]amino]-2-methyl-phenyl]methanone hydrochloride] |  | 370
COc1ccc(-c2cnc3c(Nc4ccc(C(=O)N5CCN(CCN(C)C)CC5)c(C)c4)nccn23)c(F)c1F [Example 27] | 160 | 

Now from value to compound, other results behind:

IC90 [1] [nM] | Structure (SMILES) | IC90 (Acinetobacter baumannii, ATCC17978, 16 h, read-out: ATCC17978 IC90, 90% growth inhibitory concentration, Acinetobacter baumannii ATCC17978, Iso-Sensitest broth, OD 600 nm over 16 h) [nM]
120 | Cc1cc(Nc2nccn3c(-c4ccc(OC(F)F)cc4)cnc23)ccc1C(=O)N1CCC(C(N)=O)CC1 [Example 4, 1-(4-((3-(4-(difluoromethoxy)phenyl)imidazo[1,2-a]pyrazin-8-yl)amino)-2-methylbenzoyl)piperidine-4-carboxamide] | 
130 | Cc1cc(Nc2nccn3c(-c4ccc(OC(F)F)cc4)cnc23)ccc1C(=O)N1CCC(n2cncn2)CC1 [Example 8, (4-(1H-1,2,4-triazol-1-yl)piperidin-1-yl)(4-((3-(4-(difluoromethoxy)phenyl)imidazo[1,2-a]pyrazin-8-yl)amino)-2-methylphenyl)methanone] | 
410 | Cc1cc(Nc2nccn3c(-c4ccc(OC(F)F)cc4)cnc23)ccc1C(=O)N1CCC(N2CCNC2=O)CC1 [Example 9, 1-(1-(4-((3-(4-(difluoromethoxy)phenyl)imidazo[1,2-a]pyrazin-8-yl)amino)-2-methylbenzoyl)piperidin-4-yl)imidazolidin-2-one] | 
1600 | Cc1cc(Nc2nccn3c(-c4ccc(OC(F)F)cc4)cnc23)ccc1C(=O)N1CCCC(C(N)=O)C1 (centres unmarked) [Example 10, 1-(4-((3-(4-(difluoromethoxy)phenyl)imidazo[1,2-a]pyrazin-8-yl)amino)-2-methylbenzoyl)piperidine-3-carboxamide] | 
580 | CCOC(=O)NC1CCN(C(=O)c2ccc(Nc3nccn4c(-c5ccc(OC(F)F)cc5)cnc34)cc2C)CC1 [Example 11, ethyl (1-(4-((3-(4-(difluoromethoxy)phenyl)imidazo[1,2-a]pyrazin-8-yl)amino)-2-methylbenzoyl)piperidin-4-yl)carbamate] | 
720 | Cc1cc(Nc2nccn3c(-c4ccc(OC(F)F)cc4)cnc23)ccc1C(=O)N1CCC(Oc2ncccn2)CC1 [Example 12] | 
130 | Cc1cc(Nc2nccn3c(-c4ccc(OC(F)F)cc4)cnc23)ccc1C(=O)N1CCC(c2nncn2C)CC1 [Example 13, (4-((3-(4-(difluoromethoxy)phenyl)imidazo[1,2-a]pyrazin-8-yl)amino)-2-methylphenyl)(4-(4-methyl-4H-1,2,4-triazol-3-yl)piperidin-1-yl)methanone] | 
150 | CNC(=O)C1CCN(C(=O)c2ccc(Nc3nccn4c(-c5ccc(OC(F)F)cc5)cnc34)cc2C)CC1 [Example 15, 1-(4-((3-(4-(difluoromethoxy)phenyl)imidazo[1,2-a]pyrazin-8-yl)amino)-2-methylbenzoyl)-N-methylpiperidine-4-carboxamide] | 
930 | Cc1cc(Nc2nccn3c(-c4ccc(OC(F)F)cc4)cnc23)ccc1C(=O)N1CCC(Cn2cccn2)CC1 [Example 16, (4-((1H-pyrazol-1-yl)methyl)piperidin-1-yl)(4-((3-(4-(difluoromethoxy)phenyl)imidazo[1,2-a]pyrazin-8-yl)amino)-2-methylphenyl)methanone] | 
150 | Cc1cc(Nc2nccn3c(-c4ccc(OC(F)F)cc4)cnc23)ccc1C(=O)N1CCC(CN)CC1 [Example 18, (4-(aminomethyl)piperidin-1-yl)(4-((3-(4-(difluoromethoxy)phenyl)imidazo[1,2-a]pyrazin-8-yl)amino)-2-methylphenyl)methanone hydrochloride] | 
160 | Cc1cc(Nc2nccn3c(-c4ccc(OC(F)F)cc4)cnc23)ccc1C(=O)N1CCC(C2CNC2)CC1 [Example 20, (4-(azetidin-3-yl)piperidin-1-yl)(4-((3-(4-(difluoromethoxy)phenyl)imidazo[1,2-a]pyrazin-8-yl)amino)-2-methylphenyl)methanone hydrochloride] | 
670 | Cc1cc(Nc2nccn3c(-c4ccc(OC(F)F)cc4)cnc23)ccc1C(=O)N1CCN(CCN)CC1 [Example 24, [4-(2-aminoethyl)piperazin-1-yl]-[4-[[3-[4-(difluoromethoxy)phenyl]imidazo[1,2-a]pyrazin-8-yl]amino]-2-methyl-phenyl]methanone] | 
